Test results published in patent US4849434A, “Novel thiazolidin-4-one derivatives and acid addition salts therof” (Sumitomo Pharmaceuticals Company, Limited, priority 1986, dated 1989).
In brackets after ≈: the same amount, converted by molar mass. Read-outs that look alike come from different tables or passages of the source.

What was measured:
[1] = test system: platelet aggregation caused by PAF; assay: Inhibition of platelet aggregation, outside-living-body test (rabbit, intravenous); assay type: in vivo; settings: Oryctolagus cuniculus, EC50 is of PAF, higher = more inhibition, read-out: EC50 value (PAF concentration necessary for causing an aggregation corresponding to 50% of the maximum PAF reaction)
Protocol: (§1) The test compound was intravenously administered (30 mg/kg) to a rabbit or orally administered (50 mg/kg) to a guinea pig. Blood samples were collected, and the extent of platelet aggregation caused by 10^-12 -10^-6 M of PAF was examined. The numerical values in the Table show the PAF concentrations (EC50 nM) necessary for causing an aggregation corresponding to 50% of the maximum PAF reaction.

[2] = test system: rabbit platelet aggregation caused by PAF; assay: Inhibition of PAF-induced platelet aggregation in vitro test; assay type: cell-based, rabbit (Japanese white crossbred male); settings: rabbit PRP; for Specific activity relative to the activity of the compound of Example 1: inhibition of PAF-induced aggregation, compound of Example 1 = 1
Protocol: The inhibition of PAF-induced platelet aggregation was examined by use of a platelet-rich plasma [PRP] of a rabbit according to the method of Mustard et al. [J. F. Mustard et al., J. Lab. Clin. Med., 64, 548 (1964)], which is an improved version of the method of Born [G. V. R. Born, J. Physiol., London, 162, 67 (1962)]. Thus, 80 to 100 ml of blood per animal was collected from the carotid artery of a Japanese white crossbred male rabbit without anesthesia into a polyethylene vessel in which 1/10 the volume of a 3.8% sodium citrate solution had been placed beforehand. A portion (about 3 ml) of the blood thus collected was subjected to high speed centrifugation (11,000 rpm, 60 seconds) to obtain a platelet-poor plasma (PPP) as supernatant. The remainder of the blood was subjected to low speed centrifugation (1,000 rpm, 10 minutes) to obtain a platelet-richplasma (PRP) as supernatant.
The platelet aggregation was evaluated by nephelometry, the determination being made with PRP stirred at 1,000 rpm at 37° C. by use of an aggregater (Hematracer, Niko Bioscience Co.). The platelet aggregation activity was expressed in terms of the percent of light transmission, that of PRP being taken as 0% and that of PPP being taken as 100%. A 0.2 ml portion of PRP was placed in a glass cuvette containing a silicone-treatediron stirring rod, and 2 μl of dimethyl sulfoxide was added thereto. After 2 minutes, a PAF solution in 0.25% BSA physiological saline was added thereto to give a final concentration of PAF of […] and the maximum aggregation was determined. To examine the inhibitory activity of test compounds for the platelet aggregation caused by PAF, 2 μl of a test compound dissolved in dimethyl sulfoxide was added in place of dimethyl sulfoxide described above. The PAF inhibitory rate of a test compound was calculated according to the following equation: [formula]

[3] = test system: platelet aggregation caused by PAF; assay: Inhibition of platelet aggregation, outside-living-body test (guinea pig, oral); assay type: in vivo; settings: Cavia porcellus, EC50 is of PAF, higher = more inhibition, read-out: EC50 value (PAF concentration necessary for causing an aggregation corresponding to 50% of the maximum PAF reaction)
Protocol: as §1

SMILES | Specific activity relative to the activity of the compound of Example 1 [2] | further results
CN1C(=O)C(c2ccc(Cl)cc2)SC1c1cccnc1 (stereo not shown) [Example 1, 5-(4-chlorophenyl)-3-methyl-2-(3-pyridyl)thiazolidin-4-one] |  | EC50 at 30 mg/kg ([1]; 0 hr after administration): 6.2 nM; EC50 at 30 mg/kg ([1]; 0.5 hr after administration): 26 nM; EC50 at 30 mg/kg ([1]; 1 hr after administration): 20 nM; EC50 at 30 mg/kg ([1]; 2 hr after administration): 16 nM; EC50 at 30 mg/kg ([1]; 4 hr after administration): 14 nM; IC50 ([2]; Oryctolagus cuniculus, Platelet, PAF-induced aggregation): 5 µg/mL (≈ 16.4 µM); EC50 at 50 mg/kg ([3]; 0 hr after administration): 0.23 nM; EC50 at 50 mg/kg ([3]; 0.5 hr after administration): 10 nM; EC50 at 50 mg/kg ([3]; 1 hr after administration): 17 nM; EC50 at 50 mg/kg ([3]; 2 hr after administration): 3 nM; EC50 at 50 mg/kg ([3]; 4 hr after administration): 1 nM
C#CCN1C(=O)C(c2ccc(Cl)cc2)SC1c1cccnc1 (single isomer, unassigned) [Example 19] | 1.2 | 
CN1C(=O)C(c2ccc(F)cc2)SC1c1cccnc1 (stereo not shown) [Example 4] | 1.3 | 
COc1ccc(CCN2C(=O)C(c3ccc(Cl)cc3)SC2c2cccnc2)cc1OC (single isomer, unassigned) [Example 21] | 2.2 | 
O=C1C(c2ccc(Cl)cc2)SC(c2cccnc2)N1CCCO (stereo not shown) [Example 27] | 0.6 | 
CCN1C(=O)C(c2ccc(Cl)cc2)SC1c1cccnc1 (stereo not shown) [Example 15] | 0.5 | 
CN1C(=O)C(c2cccc3ccccc23)SC1c1cccnc1 (stereo not shown) [Example 5] | 0.9 | 
C=CCN1C(=O)C(c2ccc(Cl)cc2)SC1c1cccnc1 (single isomer, unassigned) [Example 17] | 1.0 | 
CN1C(=O)C(c2ccccc2)SC1c1cccnc1 (stereo not shown) [Example 14] | 1.4 | 
COc1ccc(C2SC(c3cccnc3)N(C)C2=O)cc1OC (stereo not shown) [Example 11] | 0.7 | 
CN1C(=O)C(c2c(Cl)cccc2Cl)SC1c1cccnc1 (stereo not shown) [Example 13] | 2.3 | 
CC(=O)OCCN1C(=O)C(c2ccc(Cl)cc2)SC1c1cccnc1 (single isomer, unassigned) [Example 32] | 1.8 | 
